The structures appear in SMILES notation. pIC50: −log10 of the molar value.

Experimental findings from ChEMBL document CHEMBL1146148, “Hydroxyl radical scavenging by edaravone derivatives: Efficient scavenging by 3-methyl-1-(pyridin-2-yl)-5-pyrazolone with an intramolecular base” (Bioorg Med Chem Lett, 2006) are described below.

The nature of the test: Hydroxyl radical scavenging activity by ESR spin-trapping method. In kind it is functional.

As a reminder, the pIC50 is −log10 of the IC50, conventionally taken in molar units. Lower therefore signals a large IC50. With `CC1=NN(c2ccc([N+](=O)[O-])cc2)C(=O)C1`, the negative-log IC50 (pIC50) was 3.30.

With `O=C(NC1=NN(c2ccccc2)C(=O)C1)Oc1ccccc1`, the negative-log IC50 (pIC50) was 3.42.

For `CC1=NN(c2ccccc2)C(=O)C1C1CC1` (stereo not drawn), the pIC50 is 3.14.

Regarding `O=C1CC(C(F)(F)F)=NN1c1ccccc1`, the negative logarithm of the IC50 (pIC50) is 3.09.

The molecule `CC1=NN(c2ccccc2)C(=O)C1C(=O)c1ccccc1` (stereo not drawn) showed a pIC50 of 3.21.

On to `CC1=NN(c2ccccc2)C(=O)C1` [EDARAVONE], for which the pIC50 is 3.60.

`CC1=NN(c2ccccc2)C(=O)C1c1ccccc1` (stereo not drawn) gave a negative logarithm of the IC50 (pIC50) of 3.10. Against the preceding molecule, the pIC50 is 0.50 log units lower.

In the case of `CC1=NN(c2ccccn2)C(=O)C1`, the negative-log IC50 (pIC50) was 4.74. This pIC50 lies 1.64 log units higher than the previous one.
